Source: patent US9738641B2, “Bicyclic inhibitors” (Kalvista Pharmaceuticals Limited, priority 2013, dated 2017)

How the values were obtained:
Human plasma kallikrein = Human plasma kallikrein (Homo sapiens (Human), UniProt P03952); test: Determination of the IC50 for plasma kallikrein (fluorogenic substrate H-DPro-Phe-Arg-AFC); type: biochemical; details: 37° C., read-out: IC50 (human PKal)
Procedure: Determination of the IC50 for Plasma Kallikrein
(§1) Plasma kallikrein inhibitory activity in vitro was determined using standard published methods (see e.g. Johansen et al., Int. J. Tiss. Reac. 1986, 8, 185; Shori et al., Biochem. Pharmacol., 1992, 43, 1209; Stürzebecher et al., Biol. Chem. Hoppe-Seyler, 1992, 373, 1025). Human plasma kallikrein (Protogen) was incubated at 37° C. with the fluorogenic substrate H-DPro-Phe-Arg-AFC and various concentrations of the test compound. Residual enzyme activity (initial rate of reaction) was determined by measuring the change in optical absorbance at 410 nm and the IC50 value for the test compound was determined.

Human KLK1 = Human KLK1 (Homo sapiens (Human), UniProt P06870); test: Determination of the IC50 for KLK1 (fluorogenic substrate H-DVal-Leu-Arg-AFC); type: biochemical; details: 37° C.
Procedure: Determination of the IC50 for KLK1
as §1, with “KLK1” for “Plasma kallikrein”, “KLK1 (Callbiochem)” for “plasma kallikrein (Protogen)”, “H-DVal-Leu-Arg-AFC” for “H-DPro-Phe-Arg-AFC”

[1] = system: retinal vascular permeability and retinal blood flow; details: diabetic rats; cited from earlier work
[2] = in vivo; cited from earlier work

Human KLK1, sequence (P06870 25-262): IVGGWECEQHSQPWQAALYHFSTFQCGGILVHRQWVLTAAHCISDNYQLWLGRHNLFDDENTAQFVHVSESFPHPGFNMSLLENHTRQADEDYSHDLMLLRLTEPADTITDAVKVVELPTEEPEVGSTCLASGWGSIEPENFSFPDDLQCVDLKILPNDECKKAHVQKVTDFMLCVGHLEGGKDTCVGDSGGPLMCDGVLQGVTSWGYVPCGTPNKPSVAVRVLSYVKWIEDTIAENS
Human plasma kallikrein, sequence (P03952 391-638): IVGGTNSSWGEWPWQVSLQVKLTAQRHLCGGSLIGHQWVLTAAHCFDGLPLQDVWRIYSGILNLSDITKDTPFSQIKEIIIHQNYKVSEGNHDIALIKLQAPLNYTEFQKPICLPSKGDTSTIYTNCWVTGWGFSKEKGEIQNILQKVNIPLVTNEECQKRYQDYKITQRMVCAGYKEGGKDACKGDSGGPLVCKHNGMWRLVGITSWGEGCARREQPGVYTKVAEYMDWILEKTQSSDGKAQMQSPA
Human plasma kallikrein, sequence (P03952 20-390 partner): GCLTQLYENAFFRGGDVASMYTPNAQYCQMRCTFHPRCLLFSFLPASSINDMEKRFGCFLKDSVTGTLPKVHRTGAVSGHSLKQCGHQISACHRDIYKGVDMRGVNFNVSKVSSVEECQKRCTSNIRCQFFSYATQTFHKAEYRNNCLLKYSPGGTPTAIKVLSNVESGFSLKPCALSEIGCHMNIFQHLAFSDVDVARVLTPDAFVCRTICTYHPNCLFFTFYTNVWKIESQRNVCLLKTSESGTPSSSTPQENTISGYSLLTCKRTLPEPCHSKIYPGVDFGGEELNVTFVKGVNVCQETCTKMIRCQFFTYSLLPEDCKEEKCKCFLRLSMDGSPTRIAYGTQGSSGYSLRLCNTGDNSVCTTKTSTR

IC50 (Human plasma kallikrein) [µM]	IC50 (Human KLK1) [µM]	Compound	effect on retinal vascular permeability and retinal blood flow abnormalities [1]	oral availability [2]
5.37	29.9	NCc1ccc(CNc2nccc3c2ccn3Cc2ccc(Cn3ccccc3=O)cc2)cc1 [Example 7, 1-{4-[4-(4-Aminomethyl-benzylamino)-pyrrolo[3,2-c]pyridin-1-ylmethyl]-benzyl}-1H-pyridin-2-one]	–	–
20.5	5.04	Cc1cnn(Cc2ccc(CN3CCOc4c(NCc5ccc6c(N)nccc6c5)ncnc43)cc2)c1 [Example 10, (1-Amino-isoquinolin-6-ylmethyl)-{8-[4-(4-methyl-pyrazol-1-ylmethyl)-benzyl]-7,8-dihydro-6H-pyrimido[5,4-b][1,4]oxazin-4-yl}-amine]	–	–
5.32	10.3	c1ccc(-c2nc(Cn3ccc4c(NCc5cnc6[nH]ccc6c5)nccc43)cs2)cc1 [Example 4, [1-(2-Phenyl-thiazol-4-ylmethyl)-1H-pyrrolo[3,2-c]pyridin-4-yl]-(1H-pyrrolo[2,3-b]pyridin-5-ylmethyl)-amine]	–	–
29	38.6	NCc1ccc(CNc2nccc3c2ccn3CCCCc2ccccc2)cc1 [Example 5, (4-Aminomethyl-benzyl)-[1-(4-phenyl-butyl)-1H-pyrrolo[3,2-c]pyridin-4-yl]-amine]	–	–
5.46	5.69	O=c1ccccn1Cc1ccc(Cn2ccc3c(NCc4cnc5[nH]ccc5c4)nccc32)cc1 [Example 3, 1-(4-{4-[(1H-Pyrrolo[2,3-b]pyridin-5-ylmethyl)-amino]-pyrrolo[3,2-c]pyridin-1-ylmethyl}-benzyl)-1H-pyridin-2-one]	–	–
–	–	N=C(N)c1ccc(CNC(=O)c2cnn(Cc3ccccc3)c2)cc1 [ASP-440]	ameliorated both retinal vascular permeability and retinal blood flow abnormalities	poor oral availability
8.1	8.26	NCc1ccc(CNc2nccc3c2ccn3Cc2csc(-c3ccccc3)n2)cc1 [Example 9, (4-Aminomethyl-benzyl)-[1-(2-phenyl-thiazol-4-ylmethyl)-1H-pyrrolo[3,2-c]pyridin-4-yl]-amine]	–	–

Compound	IC50 (Human plasma kallikrein) [µM]	IC50 (Human KLK1) [µM]	effect on retinal vascular permeability and retinal blood flow abnormalities [1]	oral availability [2]
Cc1cc(CN)ccc1CNc1nccc2c1ccn2Cc1ccc(Cn2ccccc2=O)cc1 [Example 8, 1-{4-[4-(4-Aminomethyl-2-methyl-benzylamino)-pyrrolo[3,2-c]pyridin-1-ylmethyl]-benzyl}-1H-pyridin-2-one]	6.3	5.3	–	–
Cc1cc(CN)ccc1CNc1nccc2c1ccn2Cc1csc(-c2ccccc2)n1 [Example 6, (4-Aminomethyl-2-methyl-benzyl)-[1-(2-phenyl-thiazol-4-ylmethyl)-1H-pyrrolo[3,2-c]pyridin-4-yl]-amine]	8.59	8.14	–	–
